Like-named read-outs stand apart in the source and are kept apart here.
Assay: Pharmacokinetics of PDS after single and multiple oral administration in AA amyloidosis patients
Assay type: in vivo
Conditions: human, plasma; for AUC(0-t) / Cmax / half-life: po; for half-life: multiple dose oral administration
Source text: In the following examples, terms are as defined below. The pharmacokinetic parameters were derived by non-compartmental analysis using WinNonlin® (Pharsight Corp., Mountain View, Calif., USA). • Cmax—the maximum observed plasma concentration. • Tmax—the time of occurrence of Cmax. • AUC0-t—the area under the plasma concentration versus time curve from time zero to the last sampling time at which concentrations were at or above the limit of quantification, calculated by the linear trapezoidal rule. • AUC∞—the area under the plasma concentrations versus time curve from time zero to infinity, calculated from AUC0-t+(Clast/λz), where Clast is the last observed quantifiable concentration and λz is the apparent terminal rate constant. • t1/2 the apparent terminal half-life, calculated from ln 2/λz
The safety, efficacy and pharmacokinetics of PDS after single and multiple oral administration in subjects with AA amyloidosis is determined. This is a multicenter, multinational, randomized, double-blind, placebo-controlled, and parallel-design study to assess the pharmacokinetic profile of single and repeated doses of PDS. Dosing depends on the severity or renal impairment in a subject: subjects having creatinine clearance (ClCr)>80 mL/min receive 1200 mg BID; for ClCr between 30 and 80 mL/min, the subject receives 800 mg BID; and for ClCr between 20 and 30 mL/min, the subject receives 400 mg BID. If ClCr decreases to the next lower range level, the dose regimen is adjusted accordingly. PDS is administered as a single oral dose for a subset of AA amyloidosis patients on Month 0 and 24 visits. Following the single administration on Month 0, PDS is administered twice daily for 24 months. Blood samples are collected through 24 hours after the doses on Month 0 and 24, and through 8 hours after the doses on Month 4, 8, 12 visits. Plasma concentrations of PDS are determined using validated HPLC methods. Following multiple dose oral administration of PDS, the range of accumulation across subjects is 1.75 to 3.44. Based on the accumulation factor, the mean T1/2 calculated is 15 hours with a range of 10 to 24 hours.

`O=S(=O)([O-])CCCS(=O)(=O)[O-].[Na+].[Na+]` [PDS, 1,3-propanedisulfonic acid, disodium salt] showed a Tmax (Dose 400 (mg BID), Month 0 single oral dose, n = 2, mean) of 3 h, a Tmax (Dose 400 (mg BID), Month 24 repeated oral doses, n = 3, mean) of 1.83 h and a Tmax (Dose 800 (mg BID), Month 0 single oral dose, n = 5, mean) of 2.95 h. It also gave a Tmax (Dose 800 (mg BID), Month 24 repeated oral doses, n = 4, mean) of 1.85 h, a Tmax (Dose 1200 (mg BID), Month 0 single oral dose, n = 4, mean) of 0.69 h and a Tmax (Dose 1200 (mg BID), Month 24 repeated oral doses, n = 1) of 0.68 h. The AUC(0-t) (400 mg BID, Month 24 repeated oral doses, n = 3, mean, read-out: AUC(0-12)) was 17600 ng·h/mL, the AUC(0-t) (400 mg BID, Month 24 repeated oral doses, n = 3, mean, read-out: AUC(0-tlast)) was 25700 ng·h/mL and the AUC(0-t) (400 mg, Dose 400 (mg BID), Month 0 single oral dose, n = 2, mean, read-out: AUC(0-12)) was 7410 ng·h/mL. For the same compound, the AUC(0-t) (400 mg, Dose 400 (mg BID), Month 0 single oral dose, n = 2, mean, read-out: AUC(0-tlast)) was 11700 ng·h/mL, the Cmax (400 mg, Dose 400 (mg BID), Month 24 repeated oral doses, n = 3, mean) was 2160 ng/mL and the Cmax (400 mg, Dose 400 (mg BID, ClCr 20-30 mL/min), Month 0 single oral dose, n = 2, mean) was 841 ng/mL. The Cmax (800 mg BID, Month 24 repeated oral doses, n = 4, mean) was 1900 ng/mL, the AUC(0-t) (800 mg BID, Month 24 repeated oral doses, n = 4, mean, read-out: AUC(0-12)) was 13700 ng·h/mL and the AUC(0-t) (800 mg BID, Month 24 repeated oral doses, n = 4, mean, read-out: AUC(0-tlast)) was 21200 ng·h/mL. For the same compound, the AUC(0-t) (800 mg, Dose 800 (mg BID), Month 0 single oral dose, n = 5, mean, read-out: AUC(0-12)) was 5950 ng·h/mL, the AUC(0-t) (800 mg, Dose 800 (mg BID), Month 0 single oral dose, n = 5, mean, read-out: AUC(0-tlast)) was 9810 ng·h/mL and the Cmax (800 mg, Dose 800 (mg BID, ClCr 30-80 mL/min), Month 0 single oral dose, n = 5, mean) was 812 ng/mL. It also gave a Cmax (1200 mg BID, Month 24 repeated oral doses, n = 1) of 637 ng/mL, an AUC(0-t) (1200 mg BID, Month 24 repeated oral doses, n = 1, read-out: AUC(0-12)) of 4930 ng·h/mL and an AUC(0-t) (1200 mg BID, Month 24 repeated oral doses, n = 1, read-out: AUC(0-tlast)) of 9140 ng·h/mL. For the same compound, the AUC(0-t) (1200 mg, Dose 1200 (mg BID), Month 0 single oral dose, n = 4, mean, read-out: AUC(0-12)) was 4210 ng·h/mL, the AUC(0-t) (1200 mg, Dose 1200 (mg BID), Month 0 single oral dose, n = 4, mean, read-out: AUC(0-tlast)) was 5630 ng·h/mL and the Cmax (1200 mg, Dose 1200 (mg BID, ClCr >80 mL/min), Month 0 single oral dose, n = 4, mean) was 867 ng/mL. It also gave a half-life (read-out: mean T1/2 calculated based on the accumulation factor (converted)) of 15 h and a half-life (read-out: range of T1/2 calculated based on the accumulation factor) of 10 to 24 h.

— patent publication US20130296434A1, “FORMULATIONS AND METHODS FOR TREATING AMYLOIDOSIS” (Kiacta Sarl, priority 2005, published 2013)
